How the values were obtained:
[1] = system: Plasmodium falciparum; assay: Antimalarial activity: Asexual Blood Stage Plasmodium falciparum 3D7 IC50 (uM); format: functional, organism-based
[2] = system: Plasmodium falciparum; assay: Antimalarial activity: Asexual Blood Stage Plasmodium falciparum Dd2 IC50 (uM); format: functional, organism-based
[3] = system: Plasmodium falciparum; assay: Antimalarial activity: Asexual Blood Stage Plasmodium falciparum W2 IC50 (uM); format: functional, organism-based
[4] = system: Plasmodium berghei; assay: Antimalarial activity: Liver Stage Plasmodium berghei sporozoite Luciferase assay: inhibition at 10 uM (%); format: functional
[5] = system: Plasmodium falciparum; assay: Antimalarial activity: Gametocytes Plasmodium falciparum NF54 Gametocytes Stage V: inhibition at 10 uM (%); format: functional
[6] = system: HepG2; assay: Cytotoxicity data HepG2 CC20 (uM); format: functional
[7] = system: HepG2; assay: HepG2 inhibition at 10 uM (%) Cytotoxicity; format: functional; conditions: Homo sapiens
[8] = HL60 CC50 (uM) Cytotoxicity; format: functional; conditions: HL-60
[9] = system: Plasmodium berghei; assay: Antimalarial activity: Liver Stage Plasmodium berghei sporozoite Luciferase assay IC50 (uM); format: functional, organism-based
[10] = system: HepG2; assay: HepG2 CC50 (uM) Cytotoxicity; format: functional; conditions: Homo sapiens

Row | SMILES | IC50 [1] [nM] | IC50 [2] [nM] | IC50 [3] [nM] | Inhibition [4] [%] | Inhibition [5] [%] | CC20 [6] [µM] | inhibition at 10 µM [7] [%] | CC50 [8] [µM] | IC50 [9] [µM] | CC50 [10] [µM]
1 | CCN(CC)CCCN1CCN(C(=O)c2cccc(-c3noc(C(F)(F)F)n3)c2)CC1 | 190 | 850 | 310 | 4 | 18 | >80 | 0 | > 50 |  | 
2 | CC(C)(C)c1cc(C(=O)Nc2cccnc2)cc(C(=O)Nc2cccnc2)c1 | 900 | 1630 | 1880 | 12 | 10 | 17.2 | 19 | > 50 |  | 
3 | O=C(NCCc1ccccc1)c1cc(-c2cccnc2)cnc1NCC1CC1 | 1290 | 2290 | 1400 | 39 | 4 | 12.9 | 5 | > 12.5 |  | 
4 | Nc1ncc(-c2cn[nH]c2)cc1-c1nc2cc(Cl)cnc2[nH]1 | 400 |  |  | 0 | 0 | 2.82 | 7 | > 50 |  | 
5 | OCc1ccc(-c2cncc(Nc3cccc(Cl)c3)c2)cc1 | 30 | 10 |  | 57 | 5 | 20.5 | 7 | > 25 |  | 
6 | CC(=O)Nc1ccc(NC(=O)c2cc(-c3cc(Cl)ccc3O)n[nH]2)cc1 | 350 | 480 | 510 | 0 | 6 | >80 | 7 | > 50 |  | 
7 | O=C(Nc1cccc(-c2ccc(NCCCN3CCCC3)nc2)c1)c1ccccc1 | 850 | 2740 | 1660 | 25 | 7 | 17.2 | 0 | > 50 |  | 
8 | CN1CCN(c2nccc3[nH]c(-c4cccc(F)c4)cc23)CC1 | 1460 | 2100 | 2630 | 40 | 29 | 10.4 | 2 | > 12.5 |  | 
9 | CCOc1ccc(-c2nc(NC(=O)CS(=O)(=O)c3ccccc3)sc2C)cc1 | 660 | 1800 | 1970 | 59 | 17 | 20 |  |  | > 10 | > 10
10 | Cc1ccc(S(=O)(=O)n2cc(-c3ccnc(N)c3)c3cc(Br)cnc32)cc1 | 630 | 1470 | 1300 | 99 | 17 | 5.28 |  |  | > 6 | > 6
11 | CC(C)(C)c1cc(C(=O)N2CCN(c3nccnc3C#N)CC2)n(Cc2ccccc2)n1 | 600 | 1000 | 1300 | 42 | 8 | 22.9 | 0 | > 50 |  | 
12 | Cc1cccc(NC(=O)c2cc(S(=O)(=O)N(C)c3ccc(F)cc3)ccc2Cl)n1 | 1580 | > 2000 | 1070 | 86 | 3 | 26.4 |  |  | 6.77 | > 10
13 | CS(=O)(=O)c1cccc(-c2cnc3[nH]cc(-c4ccc(CCC(=O)O)cc4)c3c2)c1 | 500 | 680 | 910 | 47 | 38 | >80 | 16 | > 50 |  | 
14 | Cc1nnc(NC(=O)c2cn(-c3ccccc3)nc2-c2ccccc2C)o1 | 710 | 1500 | 680 | 100 | 16 | 0.92 |  |  | 0.17 | > 10
15 | NCC(=O)N1CCn2c(nc(-c3ccccc3)c2Nc2ccc3c(c2)OCO3)C1 | 640 | 890 | 540 | 100 | 56 | >80 |  |  | 3.78 | > 10
16 | CC(C)(CN)c1nc(-c2ccc(Cl)c(O)c2)c(-c2ccnc(N)n2)[nH]1 | 410 | 190 | 1050 | 100 | 9 | 5.77 |  |  | 0.32 | > 10
17 | Cc1cccc(C(=O)Nc2ccnc(N(C)C3CCN(CC(C)C)CC3)c2)c1 | 2100 | 5180 | 9250 | 66 | 10 | 13.7 |  |  | > 10 | > 10
18 | CN1CCN(c2nccc3nc(-c4ccc(F)c(F)c4)[nH]c23)CC1 | 1130 | 1710 | 2110 | 56 | 32 | 10.3 |  |  | > 10 | > 10

Row | SMILES | IC50 [1] [nM] | IC50 [2] [nM] | IC50 [3] [nM] | Inhibition [4] [%] | Inhibition [5] [%] | CC20 [6] [µM] | inhibition at 10 µM [7] [%] | CC50 [8] [µM] | IC50 [9] [µM] | CC50 [10] [µM]
19 | CC1CC1C(=O)NC1CCN(CC2(c3ccccc3)CCCCC2)CC1 (configuration not stated) | 580 | 920 | 310 | 100 | 24 | >80 |  |  | 2.25 | > 10
20 | CCC(NC(=O)c1ccccc1NC(=O)c1ccc(C)cc1)C(=O)OC (configuration not stated) | 160 |  |  | 0 | 29 |  | 5 | > 50 |  | 
21 | CC(C)(C)CN1C(=O)C(c2ccccc2)(c2ccccc2)N=C1N | 800 | 1500 | > 2000 | 25 | 2 | 1.17 | 0 | 6.5 |  | 
22 | Nc1nccc2ccc(Oc3ccncc3)cc12 | 230 | 740 | 420 | 52 | 43 | >80 |  |  | > 10 | > 10
23 | Cc1nc(-c2cccc(NCc3ccccc3)c2)[nH]c1C | 1940 | 5030 | 2590 | 100 | 16 | 27.7 |  |  | 4.59 | > 10
24 | CCCNC(=O)N1CCC2(CC1)CC(=O)c1cc(C)ccc1O2 | 2060 | 3120 | 1570 | 3 | 1 | >80 | 0 | > 50 |  | 
25 | CNC(=O)C1Cc2c([nH]c3cc(Cl)ccc23)C2(CCN(CCc3ccccc3)CC2)N1 (configuration not stated) | 860 | 1950 | 4550 | 99 | 33 | 10 |  |  | 4.51 | > 10
26 | COc1cccc2c(C)nc(N=C(N)N)nc12 | 1060 | > 2000 |  | 42 | 0 | 8.38 | 20 | > 50 |  | 
27 | O=C(NC1CCN(c2ccnc3ccccc23)C1)c1cccc(C(F)(F)F)c1 (configuration not stated) | 710 | 780 | 2060 | 99 | 1 | 5.82 |  |  | 6.54 | > 10
28 | CCOc1ccccc1NC(C)C(=O)Nc1cc(C(F)(F)F)ccc1N1CCOCC1 (configuration not stated) | 420 | 610 | 790 | 56 | 39 | 29.8 |  |  | > 10 | > 10
29 | COc1cccc(-c2cc3c(Nc4cccnc4)nccc3[nH]2)c1 | 1280 | 2490 | 2530 | 77 | 6 | 2.29 |  |  | > 10 | > 10
30 | O=C1COCc2ccc(Br)cc2N1Cc1ccc(C(F)(F)F)cc1 | 960 | 3060 | 2260 | 2 | 2 | 38.4 | 10 | > 50 |  | 
31 | CCCS(=O)(=O)N1CCC(CO)(Cc2ccccc2C(F)(F)F)CC1 | 1090 | 990 | 1550 | 43 | 19 | >80 | 0 | > 50 |  | 
32 | Cc1cc(C(=O)Nc2ccc(-c3ccccc3)cc2)no1 | 820 | 1410 | 540 | 97 | 24 | >80 |  |  | > 10 | > 10
33 | CC(C)C(NC(=O)Cc1cccc2ccccc12)C(=O)Nc1cccc(C#N)c1 (configuration not stated) | 960 | 3100 | 1140 | 76 | 5 | 14 |  |  | 9.15 | > 10
34 | CN(C)CCNC(=O)N1CCCN(c2ncnc3cc(-c4ccccc4)sc23)CC1 | 1580 | 2910 | 3850 | 73 | 5 | 6.21 |  |  | 1.97 | > 10
35 | O=C(Nc1ccnc(-c2cccnc2)n1)c1cc(C(F)(F)F)cc(C(F)(F)F)c1 | 1050 | > 2000 |  | 0 | 10 | >80 | 13 | > 50 |  | 
